This passage reports AC50 results from paper PMC7822874, “Chemoprotective antimalarials identified through quantitative high-throughput screening of Plasmodium blood and liver stage parasites” (Scientific Reports, 2021).

The subject of this assay is Plasmodium falciparum Dd2 asexual blood stage parasites. Briefly: microbe, parasite or virus in culture. Details: species or system Plasmodium falciparum Dd2 in human erythrocytes; single determination (one 11-point concentration-response curve). The conditions noted are these: Plasmodium falciparum, DD2, Erythrocyte, 72 h; read-out: AC50.
A word on the AC50: it is the concentration giving half of the maximal activity seen. Consider `COC1CCN(C(=O)C(C)(C)Oc2nn(CC3CC3)c3ccc(CN4CCCC4)cc23)CC1` [NCGC00419576-01], for which the AC50 is 9.44 µM. Consider `COc1cccc(CC(=O)N2CCCn3nc(C)c(-c4ccccc4OCc4ccccc4)c32)c1` [NCGC00420361-01], for which the AC50 is 9.44 µM.

In the case of `CCOc1ccccc1CN1CCC2(CCN(CCC(C)C)CC2)Oc2ccccc21` [NCGC00478188-01], the AC50 came to 3.35 µM. Regarding `Cc1cc(C)c(S(=O)(=O)n2ccc(-c3ccc(OCCN(C)c4ccccn4)cc3)n2)c(C)c1` [MLS000331310-01], the AC50 stood at 7.5 µM. In the case of `CC(=O)N1CCc2cc(Br)cc(S(=O)(=O)N3CCCCCC3)c21` [MLS000086258-01] it was 5.31 µM; in that of `CCOc1ccc2[nH]c3c(NCCN(C)C)ncnc3c2c1` [MLS001214990-01], 16.8 µM; in that of `COc1ccccc1NC(=O)CN1CCN(C2c3ccccc3-c3ccccc32)CC1` [MLS000047428-01], 15 µM. In the case of `O=C1N=C(NC2CCCC2)C2(CCN(Cc3ccccc3)C2)N1c1cc(F)cc(F)c1` (stereo not drawn) [NCGC00374299-01], the AC50 was found to be 7.5 µM.

Turning to `CN1Cc2ccc(Nc3ccccc3)nc2C(C)(C(=O)NCc2ccc3c(c2)OCO3)C1` (stereo not drawn) [NCGC00414588-01], the AC50 is 13.7 µM. Consider `CC(C)NC(=O)OC[C@H]1C[C@@H]2CCN1C[C@@H]2c1cc(-c2ccc(F)cc2)nn1C` [NCGC00399718-01], for which the AC50 came out at 13.7 µM. Turning to `CCC(=O)NC(N)=Nc1nc(C)c2cc(C)c(C)cc2n1` [MLS000768400-01], the AC50 stood at 9.44 µM. As to `Oc1ccccc1C1=NN(c2ccccc2)C(c2ccccc2)C1` (stereo not drawn) [MLS001163829-01], the AC50 worked out at 7.5 µM. In the case of `O=C(Nc1ccc(F)cc1)N1CCOc2ccc(CN3CCc4ccccc4C3)cc2C1` [NCGC00471233-01], the AC50 was 8.41 µM. As to `O=C(Nc1ccncc1)Nc1ccc(Cl)cc1` [MLS001224591-01], the AC50 came to 10.6 µM. For the molecule `Cc1ccc(NC(=O)N2CCC(N3C(=O)C4(CCCCC4)C3c3ccncc3)CC2)cc1C` (stereo not drawn) [NCGC00461123-01], the AC50 was 7.5 µM. As for `COC(=O)C1=C(c2ccc(OC(F)(F)F)cc2)C[C@@H]2CC[C@H]1N2C(=O)NCc1cccc2ccccc12` [MLS002302720-01], the AC50 was found to be 3.35 µM. Regarding `COc1ccc(OC)c(NC(=O)c2cc(-c3cc(Cl)ccc3O)n[nH]2)c1` [MLS000083936-01], the AC50 is 4.73 µM. `CN(C)CCNC(=O)c1ccc2c(c1)N(Cc1c(F)cccc1Cl)C(=O)c1ccccc1S2` [NCGC00108148-01]: the AC50 amounted to 2.11 µM. Turning to `Cc1sc2c(c1C)c(=O)n(-c1cccc(C(F)(F)F)c1)c(=O)n2Cc1ccc(F)cc1` [NCGC00106130-01], the AC50 worked out at 2.11 µM. Take `O=C(NCc1ccccc1)c1ccccc1OC1CN(Cc2ccc(O)c(F)c2)C1` [NCGC00458090-01]: the AC50 is 15 µM. As for `COc1ccc(-c2cc(N3CCN(C(=O)c4c[nH]c5ccccc45)CC3)[nH]n2)cc1` [NCGC00436860-01], the AC50 is 15 µM. In the case of `O=C1CC2(CCN(Cc3cccs3)CC2)Oc2cc(Cl)ccc21` [NCGC00476854-01], the AC50 amounted to 5.31 µM. With `CCN(Cc1ccccc1)Cc1c(O)ccc2oc(C)c(C(=O)Nc3ccccc3C)c12` [NCGC00115715-01], the concentration at half-maximal activity (AC50) worked out at 4.73 µM. Consider `Cn1cccc1CN1CCCC2(Cc3ccccc3CNC2=O)C1` (stereo not drawn) [NCGC00377565-01], for which the AC50 was 13.2 µM.

Regarding `Cc1cc(C)c2oc(=O)cc(CN3CCCCC3)c2c1` [MLS001216359-01], the AC50 stood at 13.3 µM.

On to `CC1CC(C)CN(C(=O)c2ccc3ccccc3c2)C1` (stereo not drawn) [MLS001161774-01], for which the AC50 was determined as 2.37 µM.

Take `O=C(NC1CC1)c1ccc(CSCc2cccc(F)c2)o1` [MLS000120194-01]: the AC50 stood at 8.41 µM. For `Cc1cccc2cc(CN(Cc3ccco3)C(c3nnnn3CCc3ccccc3)C(C)C)c(O)nc12` (stereo not drawn) [MLS000072528-01], the AC50 is 10.6 µM. Regarding `COc1cc(NC(=O)CSc2nc(-c3ccccc3)no2)cc(OC)c1` [NCGC00127876-01], the AC50 was 2.37 µM. With `C[n+]1c(-c2ccccc2)cc(-c2ccc(Cl)cc2)cc1-c1ccccc1.[O-][Cl+3]([O-])([O-])O` [MLS001018624-01], the AC50 was determined as 6.68 µM.
